PMC6560442, “Biochemical Properties of Polyphenol Oxidases from Ready-to-Eat Lentil (Lens culinaris Medik.) Sprouts and Factors Affecting Their Activities: A Search for Potent Tools Limiting Enzymatic Browning” (Foods, 2019)

Columns and labels:
[1] = test system: T1, PPO I; experiment: quinone formation, absorbance at […] nm, Lineweaver-Burk; assay type: biochemical, Lens culinaris; conditions: TRIS-HCl 50 mM pH 6.5 (standard assay); 1-30 mM substrate; partially purified enzyme
T1 construct: first isoenzyme

[2] = test system: T2, PPO II; experiment: as above; assay type: biochemical, Lens culinaris; conditions: TRIS-HCl 50 mM pH 6.5 (standard assay); 1-30 mM substrate; partially purified enzyme
T2 construct: second isoenzyme

| Compound | Km [1] [µM] | Km [2] [µM] |
| --- | --- | --- |
| Oc1ccccc1O [Catechol] | 1760 ± 80 | 940 ± 40 |
| O=C(O)c1cc(O)c(O)c(O)c1 [Gallic acid] | 2250 ± 100 | 5000 ± 230 |
| Cc1ccc(O)c(O)c1 [4-methylcatechol] | 3000 ± 140 | 3400 ± 150 |
| O=C(O)/C=C/c1ccc(O)c(O)c1 [Caffeic acid] | 3810 ± 170 | – |
